Among the data in patent US12371454B2, “Cyclic peptide compound having Kras inhibitory action” (priority 2019, dated 2025) are IC50 values, retold here.

For experiment [1], the system named is Human pancreatic cancer cell line AsPC-1. In words: Measurement of AsPC-1 cell growth inhibition (AsPC-1 CGI). It counts as cell-based. As to conditions: 96 h. The method, boiled down:
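AsPC-1 cells in 15% FBS RPMI-1640 were exposed to test compound for 96 hours at 37° C, with CellTiter-Glo as endpoint.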

Experiment [2] addresses T1, Kras and SOS1 (biotin-tagged human Kras loaded with GDP, His-tagged human SOS1) (Homo sapiens, UniProt P01116, G12D).
T1 construct: made in house; host or cells: E. coli (stated for Kras only)
In words: Protein-protein interaction inhibition between Kras and SOS1 (KrasGl2D-SOS PPI) using AlphaScreen. The conditions noted are these: AlphaScreen; biotin-tagged human Kras loaded with GDP, His-tagged human SOS1; read-out: KRAS G12D-SOS PPI IC50. The format is binding. The method, boiled down:
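Read-out is acceptor-bead light at 520-620 nm, arising when 680 nm-irradiated nickel donor beads pass singlet oxygen to streptavidin acceptors. The bead pair links His-tagged SOS1 with biotin-tagged, GDP-bound Kras from E. coli.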
A general note: Bead proximity is the source of the signal in Alpha formats.

Starred links: 1 amine or outer side, 2 acyl side, 3 side chain; linkers in the order of their positions; H or OH if unused. Positions of bridges follow the written chain, without caps; N, C: chain ends. Non-standard residues stand in square brackets, D forms with d. Residues, ends and D or L forms follow the SMILES beside them. *: point of attachment. hPhe(3-Cl-4-CF3) = N[C@@H](CCc1ccc(C(F)(F)F)c(Cl)c1)C(=O)O; 3Oxa8azabicyclo(3.2.1)octane = C1CC2COCC1N2*; NMeAbu(4,4,4-F3) = CN[C@@H](CC(F)(F)F)C(=O)O; NMePhe(3-Me) = CN[C@@H](Cc1cccc(C)c1)C(=O)O; NMePhe(4-Me) = CN[C@@H](Cc1ccc(C)cc1)C(=O)O; NMePhe(4-F) = CN[C@@H](Cc1ccc(F)cc1)C(=O)O; NMedβ3hAla = C[C@H](CC(=O)[*:2])N(C)[*:1]; NMeGly(cPent) = CN[C@H](C(=O)O)C1CCCC1; NMeAla(cPr) = CN[C@@H](CC1CC1)C(=O)O; NMeGly(cBu) = CN[C@H](C(=O)O)C1CCC1; NMeCha = CN[C@@H](CC1CCCCC1)C(=O)O; NMeChg = CN[C@H](C(=O)O)C1CCCCC1; NMeI = CC[C@H](C)[C@H](NC)C(=O)O; NMeD = CN[C@@H](CC(=O)O)C(=O)O; NMeL = CN[C@@H](CC(C)C)C(=O)O; NMeV = CN[C@H](C(=O)O)C(C)C; NMeS = CN[C@@H](CO)C(=O)O; Iva = CC[C@](C)(N)C(=O)O; NMeA = CN[C@@H](C)C(=O)O; Piperidide = C1CCN(*)CC1; Ac5c = NC1(C(=O)O)CCCC1; Aze = O=C(O)[C@@H]1CCN1; Sar = CNCC(=O)O; Propyl = CCC*

T1 sequence (P01116 1-188 isoform P01116-2 G12D): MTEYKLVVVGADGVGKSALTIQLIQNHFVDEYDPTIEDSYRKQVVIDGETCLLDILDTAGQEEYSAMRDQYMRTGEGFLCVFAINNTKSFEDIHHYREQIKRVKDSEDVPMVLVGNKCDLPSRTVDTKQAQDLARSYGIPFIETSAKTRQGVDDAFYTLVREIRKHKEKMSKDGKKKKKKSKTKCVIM

For the compound `CC[C@H](C)[C@@H]1NC(=O)[C@H](CC(C)C)N(C)C(=O)C[C@@H](C(=O)N(C)C)N(C)C(=O)[C@H]([C@@H](C)CC)N(C)C(=O)C2(CCCC2)NC(=O)[C@H](Cc2cccc(C)c2)N(C)C(=O)[C@H](CCc2ccc(C(F)(F)F)c(Cl)c2)NC(=O)CN(C)C(=O)[C@H](Cc2ccc(C)cc2)N(C)C(=O)[C@@H]2CCN2C(=O)[C@H](C)N(C)C1=O` [Compound 912] ([NMeL]I[NMeA][Aze][NMePhe(4-Me)][Sar][hPhe(3-Cl-4-CF3)][NMePhe(3-Me)][Ac5c][NMeI][NMeD]-NMe2; lactam N-11), the IC50 is 0.05 to 0.1 µM in experiment [1] and 0.012 µM in experiment [2].

For `CC[C@H](C)[C@@H]1NC(=O)[C@H](CC(C)C)N(C)C(=O)C[C@@H](C(=O)N(C)C)N(C)C(=O)[C@H](C2CCCC2)N(C)C(=O)C2(CCCC2)NC(=O)[C@H](Cc2ccc(F)cc2)N(C)C(=O)[C@H](CCc2ccc(C(F)(F)F)c(Cl)c2)NC(=O)CN(C)C(=O)[C@H](CC2CCCCC2)N(C)C(=O)[C@@H]2CCN2C(=O)[C@H](C)N(C)C1=O` [Compound 920] ([NMeL]I[NMeA][Aze][NMeCha][Sar][hPhe(3-Cl-4-CF3)][NMePhe(4-F)][Ac5c][NMeGly(cPent)][NMeD]-NMe2; lactam N-11), the IC50 was 0.1 to 0.5 µM in experiment [1] and 0.015 µM in experiment [2].

Turning to `CC[C@H](C)[C@@H]1NC(=O)[C@H](CC(C)C)N(C)C(=O)C[C@@H](C)N(C)C(=O)[C@H](C(C)C)N(C)C(=O)C2(CCCC2)NC(=O)[C@@H]2CCCN2C(=O)[C@H](CCc2ccc(C(F)(F)F)c(Cl)c2)NC(=O)CN(C)C(=O)[C@H](CC2CC2)N(C)C(=O)CN(C)C(=O)CN(C)C1=O` [Compound 930] (cyclo([Ac5c][NMeV][NMedβ3hAla][NMeL]I[Sar][Sar][NMeAla(cPr)][Sar][hPhe(3-Cl-4-CF3)]P)), the half-inhibitory concentration (IC50) was 0.1 to 0.5 µM in experiment [1] and 0.039 µM in experiment [2].

`CCCOC[C@H]1C(=O)N(C)CC(=O)N[C@@H](CCc2ccc(C(F)(F)F)c(Cl)c2)C(=O)N2CCC[C@H]2C(=O)NC2(CCCC2)C(=O)N(C)[C@@H](C2CCCCC2)C(=O)N(C)[C@H](C(=O)N2C3CCC2COC3)CC(=O)N(C)[C@@H](CC(F)(F)F)C(=O)N[C@@H]([C@@H](C)CC)C(=O)N(C)CC(=O)N(C)CC(=O)N1C` [Compound 943] ([NMeAbu(4,4,4-F3)]I[Sar][Sar][NMeS](Propyl)[Sar][hPhe(3-Cl-4-CF3)]P[Ac5c][NMeChg][NMeD]-{3Oxa8azabicyclo(3.2.1)octane}; lactam N-11): the IC50 is 0.1 to 0.5 µM in experiment [1] and 0.00083 µM in experiment [2].

For the compound `CC[C@H](C)[C@@H]1NC(=O)[C@H](CC(C)C)N(C)C(=O)C[C@@H](C)N(C)C(=O)[C@H](C(C)C)N(C)C(=O)[C@](C)(CC)NC(=O)[C@@H]2CCCN2C(=O)[C@H](CCc2ccc(C(F)(F)F)c(Cl)c2)NC(=O)CN(C)C(=O)[C@H](CC2CCCCC2)N(C)C(=O)CN(C)C(=O)CN(C)C1=O` [Compound 944] (cyclo(I[Sar][Sar][NMeCha][Sar][hPhe(3-Cl-4-CF3)]P[Iva][NMeV][NMedβ3hAla][NMeL])), the values for the IC50 in experiment [1] and in experiment [2] were 0.1 to 0.5 µM and 0.018 µM, respectively.

In the case of `CC[C@H](C)[C@@H]1NC(=O)[C@H](C2CCC2)N(C)C(=O)C[C@@H](C(=O)N2CCCCC2)N(C)C(=O)[C@H](C(C)C)N(C)C(=O)C2(CCCC2)NC(=O)[C@@H]2CCCN2C(=O)[C@H](CCc2ccc(C(F)(F)F)c(Cl)c2)NC(=O)CN(C)C(=O)[C@H](CC2CCCCC2)N(C)C(=O)CN(C)C(=O)CN(C)C1=O` [Compound 948] ([NMeGly(cBu)]I[Sar][Sar][NMeCha][Sar][hPhe(3-Cl-4-CF3)]P[Ac5c][NMeV][NMeD]-Piperidide; lactam N-11), the IC50 in experiment [1] was 0.05 to 0.1 µM; in experiment [2], 0.0031 µM.

As a reminder, the IC50 is the concentration that gives 50% inhibition.
